The values that follow come from patent US20230390352A1, “COMPOSITION COMPRISING SALVIA MILTIORRHIZA EXTRACT AS ACTIVE INGREDIENT FOR PREVENTION AND TREATMENT OF DEPRESSION IN MENOPAUSAL WOMEN” (UNDBIO.CO.,LTD, priority 2020, published 2023).

Series [1] can be described thus: stability (content) of ingredients included in the Salvia miltiorrhiza extract on storage. In kind it is physicochemical. As to conditions: for Content (mg/g) of ingredient after 5 days of storage at room temperature of extract: 5 days at room temperature; for Content (mg/g) of ingredient in Salvia miltiorrhiza extract: before storage. How it is done:
When the Salvia miltiorrhiza extract was stored at 95° C. for 0 hour, 1 hour, 2 hours, 3 hours, 4 hours and 6 hours, in order to confirm whether the stability of 5 types of ingredients of which the female hormone regulatory ability has been confirmed in Example embodiment 2-1 above was maintained, the ingredient contents of the stored samples were analyzed by time. In addition, when the Salvia miltiorrhiza extract was stored at room temperature for 1 day, 2 days, 3 days, 4 days and 5 days, the stability of the ingredients was confirmed through analysis of the contents of 5 types of ingredients included in the Salvia miltiorrhiza extract.
In addition, results of comparing the content of each ingredient included in the Salvia miltiorrhiza extract at various concentrations (0, 50, 70, and 100% ethanol) and the content after 5 days of storage at room temperature were shown together in Table 1 below.

Series [2] concerns ER (female hormone receptor). In words: female hormone receptor (ER) expression in MCF-7 BUS cell line by real-time PCR. In kind it is cell-based. As to conditions: each ingredient 10 μg/mL, 72 hours. Here is the method:
Ingredients included in the Salvia miltiorrhiza extract obtained in Example embodiment 1 were confirmed, and in ingredients cryptotanshinone, danshensu, isotanshinone, salvianolic acid B, and tanshinone IIA, female hormone regulating ability was confirmed. An MCF-7 BUS cell line used in the experiment was received from Tufts University in the United States, and incubated in a CO2 incubator maintained at 37° C. and 5% CO2 by using a Dulbecco modified eagle medium (DMEM) (Gibco, USA) added with 10% fetal bovine serum (Gibco, USA) and 1% penicillin/streptomycin (Gibco, USA).
In the experiment, in order to evaluate the female hormone regulatory ability, the sensitivity to estrogen, one of the female hormones, was measured using the MCF-7 BUS cell line, and first, the MCF-7 BUS cell line was dispensed at 1×10^5 cells/well in a 60 mm culture dish, and then incubated in a CO2 incubator maintained at 37° C. and 5% CO2.
After incubation for 24 hours, each ingredient was treated at a concentration of 10 μg/mL, and 17β-Estradiol (E2) was treated with 10^−10 M as a positive control.
At this time, each primer was prepared by Takara, and ER was prepared with Forward primer: […] […] A CT value obtained through RT-PCR was converted into ΔCT, and this ΔCT value was analyzed through a change rate of an experimental group with respect to the control group, which was illustrated in FIG. 1.

The test system of series [3] is natural aging-induced menopausal animal model. In words: antidepressant efficacy verification experiment in natural aging-induced menopausal animal model (summary). In kind it is in vivo. As to conditions: antidepressant refractory animal model. The text has this: Accordingly, the Salvia miltiorrhiza extract of the present disclosure may be administered to patients with resistance to benzodiazepine or imipramine, and may be used to treat depression that is resistant to the drug.

The structures appear in SMILES notation.

For the compound `O=C(O)[C@H](O)Cc1ccc(O)c(O)c1` [Danshensu], the “Content (mg/g) of ingredient after 5 days of storage at room temperature of extract” value (“Content (mg/g) of ingredient … of extract” for short) was found to be 0.32 mg/g in series [1] (extract made with 0% EtOH), 1.22 mg/g in series [1] (extract made with 50% EtOH), 24.19 mg/g in series [1] (extract made with 70% EtOH) and 17.33 mg/g in series [1] (extract made with 100% EtOH). Moreover, the “Content (mg/g) of ingredient in Salvia miltiorrhiza extract” value (shortened to “Content … in Salvia miltiorrhiza extract”) in series [1] (extract made with 0% EtOH) is 0.34 mg/g; in series [1] (extract made with 50% EtOH) it was 1.28 mg/g; in series [1] (extract made with 70% EtOH), 25.17 mg/g; in series [1] (extract made with 100% EtOH), 18.32 mg/g. For the same compound, the “female hormone receptor regulating effect (ER mRNA change rate, FIG. 1)” value in series [2] is “most remarkable female hormone receptor regulating effect”.

With `Cc1coc2c1C(=O)c1ccc3c(C)cccc3c1C2=O` [Isotanshinone], the “Content (mg/g) of ingredient … of extract” value is listed as 0.99 mg/g in series [1] (extract made with 0% EtOH), 5.62 mg/g in series [1] (extract made with 50% EtOH), 12.11 mg/g in series [1] (extract made with 70% EtOH) and 10.33 mg/g in series [1] (extract made with 100% EtOH). Also, the “Content … in Salvia miltiorrhiza extract” value in series [1] (extract made with 0% EtOH) is given as 2.22 mg/g; in series [1] (extract made with 50% EtOH), 12.31 mg/g; in series [1] (extract made with 70% EtOH), 14.23 mg/g; in series [1] (extract made with 100% EtOH) it was 12.22 mg/g.

As to `O=C(/C=C/c1ccc(O)c2c1[C@H](C(=O)O[C@H](Cc1ccc(O)c(O)c1)C(=O)O)[C@@H](c1ccc(O)c(O)c1)O2)O[C@H](Cc1ccc(O)c(O)c1)C(=O)O` [Salvianolic acid B], the “Content (mg/g) of ingredient … of extract” value in series [1] (extract made with 0% EtOH) is reported as 18.33 mg/g; in series [1] (extract made with 50% EtOH), 26.21 mg/g; in series [1] (extract made with 70% EtOH) it was 23.21 mg/g; in series [1] (extract made with 100% EtOH) it was 15.27 mg/g. Also, the “Content … in Salvia miltiorrhiza extract” value in series [1] (extract made with 0% EtOH) worked out at 21.2 mg/g; in series [1] (extract made with 50% EtOH) it was 38.23 mg/g; in series [1] (extract made with 70% EtOH), 33.1 mg/g; in series [1] (extract made with 100% EtOH), 20.3 mg/g.

On to `Cc1coc2c1C(=O)C(=O)c1c-2ccc2c1CCCC2(C)C` [Tanshinone IIA], for which the “Content (mg/g) of ingredient … of extract” value came to 0.65 mg/g in series [1] (extract made with 0% EtOH), 4.11 mg/g in series [1] (extract made with 50% EtOH), 4.33 mg/g in series [1] (extract made with 70% EtOH) and 5.24 mg/g in series [1] (extract made with 100% EtOH). The “Content … in Salvia miltiorrhiza extract” value amounted to 1.33 mg/g in series [1] (extract made with 0% EtOH), 5.21 mg/g in series [1] (extract made with 50% EtOH), 7.22 mg/g in series [1] (extract made with 70% EtOH) and 8.33 mg/g in series [1] (extract made with 100% EtOH).

Turning to `CN(C)CCCN1c2ccccc2CCc2ccccc21` [imipramine], in series [3], the “antidepressant effect in natural aging-induced menopausal animal model” value was “insufficient antidepressant effect”.
